What was measured:
[1] = United States population, 2015–2016; cited from earlier work
[2] = target: bovine serum albumin (BSA) (Bos taurus, UniProt P02769); type: binding; settings: 310 K; for critical [PFAS]:[BSA] ratio denoting the shift from binding site to surface adsorption: Δδ begins to plateau
[3] = estimated; cited from earlier work
HSA = settings: 310 K; cited from earlier work

bovine serum albumin (BSA), sequence (P02769 25-607): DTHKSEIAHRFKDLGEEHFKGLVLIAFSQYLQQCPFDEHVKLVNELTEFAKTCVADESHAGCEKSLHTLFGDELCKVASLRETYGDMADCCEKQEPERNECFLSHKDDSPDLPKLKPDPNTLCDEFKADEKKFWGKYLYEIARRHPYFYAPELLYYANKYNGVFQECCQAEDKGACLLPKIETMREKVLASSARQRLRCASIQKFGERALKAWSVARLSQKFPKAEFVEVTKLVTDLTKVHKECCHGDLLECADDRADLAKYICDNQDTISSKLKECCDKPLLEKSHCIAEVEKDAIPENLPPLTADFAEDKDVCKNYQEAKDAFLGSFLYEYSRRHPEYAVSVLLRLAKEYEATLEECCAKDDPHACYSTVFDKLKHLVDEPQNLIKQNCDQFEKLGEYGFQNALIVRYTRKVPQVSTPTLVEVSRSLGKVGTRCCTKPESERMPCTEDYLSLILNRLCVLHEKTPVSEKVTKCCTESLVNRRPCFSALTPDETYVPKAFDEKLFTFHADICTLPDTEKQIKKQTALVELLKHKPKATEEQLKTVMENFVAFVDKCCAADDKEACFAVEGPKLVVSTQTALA

SMILES: O=S(=O)(O)C(F)(F)C(F)(F)C(F)(F)C(F)(F)C(F)(F)C(F)(F)C(F)(F)C(F)(F)F [PFOS, perfluorooctanesulfonic acid]
- average serum concentration [1]: 4.72 µg/L
- Ka (ω, terminal −CF3 position) ([2]; BSA, pH 7.4 PBS, Ka=Kd^−1): 357 mM⁻¹
- half-life in humans [3]: 5.4 years

SMILES: O=C(O)C(F)(F)C(F)(F)C(F)(F)C(F)(F)C(F)(F)C(F)(F)C(F)(F)C(F)(F)F [PFNA, perfluorononanoic acid]
- average serum concentration [1]: 1.18 µg/L
- critical [PFAS]:[BSA] ratio denoting the shift from binding site to surface adsorption [2]: 12–14
- half-life in humans [3]: 2.5 years

SMILES: CCCCCC(=O)O [hexanoic acid]
- Ka for binding to HSA (HSA): 15 mM⁻¹

SMILES: O=C(O)C(F)(F)C(F)(F)C(F)(F)C(F)(F)C(F)(F)C(F)(F)C(F)(F)F [PFOA, perfluorooctanoic acid]
- average serum concentration [1]: 1.56 µg/L
- critical [PFAS]:[BSA] ratio denoting the shift from binding site to surface adsorption [2]: 12–14
- Kd ([2]; Ka (ω, terminal −CF3 position), BSA, pH 7.4 PBS, Ka=Kd^−1): 6.45 µM

SMILES: CCCCCCCCCC(=O)O [decanoic acid]
- Ka for binding to HSA (HSA): 100 mM⁻¹

SMILES: CCCCCCCC(=O)O [octanoic acid]
- Ka for binding to HSA (HSA): 34 mM⁻¹

SMILES: O=S(=O)(O)C(F)(F)C(F)(F)C(F)(F)C(F)(F)C(F)(F)C(F)(F)F [PFHxS, perfluorohexanesulfonic acid]
- average serum concentration [1]: 0.577 µg/L
- critical [PFAS]:[BSA] ratio denoting the shift from binding site to surface adsorption [2]: 12–14
